Assays:
[1] = biological target: Ephrin type-A receptor 2 (Homo sapiens) (UniProt P29317); assay: Inhibition of human EphA2 assessed as enzyme activity at 1 uM relative to control; set-up: scale not given: the % may be the effect or the level left
[2] = biological target: Serine/threonine-protein kinase Nek2 (Homo sapiens) (UniProt P51955); assay: Inhibition of human NEK2 assessed as enzyme activity at 1 uM relative to control; set-up: scale not given: the % may be the effect or the level left
[3] = biological target: Protein kinase C beta type (Homo sapiens) (UniProt P05771); assay: Inhibition of human PKCbeta2 assessed as enzyme activity at 1 uM relative to control; set-up: scale not given: the % may be the effect or the level left
[4] = biological target: Glycogen synthase kinase-3 beta (Homo sapiens) (UniProt P49841); assay: Inhibition of human GSK3beta assessed as enzyme activity at 1 uM relative to control; set-up: scale not given: the % may be the effect or the level left
[5] = biological target: G protein-coupled receptor kinase 5 (Homo sapiens) (UniProt P34947); assay: Inhibition of human GRK5 assessed as enzyme activity at 1 uM relative to control; set-up: scale not given: the % may be the effect or the level left
[6] = biological target: Ribosomal protein S6 kinase beta-1 (Homo sapiens) (UniProt P23443); assay: Inhibition of human p70S6K assessed as enzyme activity at 1 uM relative to control; set-up: scale not given: the % may be the effect or the level left
[7] = biological target: Casein kinase I isoform gamma-1 (Homo sapiens) (UniProt Q9HCP0); assay: Inhibition of human CK1gamma1 assessed as enzyme activity at 1 uM relative to control; set-up: scale not given: the % may be the effect or the level left
[8] = biological target: Mitogen-activated protein kinase 8 (Homo sapiens) (UniProt P45983); assay: Inhibition of human JNK1alpha1 assessed as enzyme activity at 1 uM relative to control; set-up: scale not given: the % may be the effect or the level left
[9] = biological target: Serine/threonine-protein kinase ULK2 (Homo sapiens) (UniProt Q8IYT8); assay: Inhibition of human ULK2 assessed as enzyme activity at 1 uM relative to control; set-up: scale not given: the % may be the effect or the level left
[10] = biological target: Serine/threonine-protein kinase TAO2 (Homo sapiens) (UniProt Q9UL54); assay: Inhibition of human TAO2 assessed as enzyme activity at 1 uM relative to control; set-up: scale not given: the % may be the effect or the level left
[11] = biological target: Epidermal growth factor receptor (Homo sapiens) (UniProt P00533); assay: Inhibition of human EGFR assessed as enzyme activity at 1 uM relative to control; set-up: scale not given: the % may be the effect or the level left
[12] = biological target: Serine/threonine-protein kinase MRCK beta (Homo sapiens) (UniProt Q9Y5S2); assay: Inhibition of human MRCKbeta assessed as enzyme activity at 1 uM relative to control; set-up: scale not given: the % may be the effect or the level left
[13] = biological target: Ephrin type-B receptor 2 (Homo sapiens) (UniProt P29323); assay: Inhibition of human EphB2 assessed as enzyme activity at 1 uM relative to control; set-up: scale not given: the % may be the effect or the level left
[14] = biological target: Fibroblast growth factor receptor 2 (Homo sapiens) (UniProt P21802); assay: Inhibition of human FGFR2 assessed as enzyme activity at 1 uM relative to control; set-up: scale not given: the % may be the effect or the level left
[15] = biological target: Tyrosine-protein kinase ZAP-70 (Homo sapiens) (UniProt P43403); assay: Inhibition of human ZAP-70 assessed as enzyme activity at 1 uM relative to control; set-up: scale not given: the % may be the effect or the level left
[16] = biological target: Rhodopsin kinase GRK7 (Homo sapiens) (UniProt Q8WTQ7); assay: Inhibition of human GRK7 assessed as enzyme activity at 1 uM relative to control; set-up: scale not given: the % may be the effect or the level left
[17] = biological target: Casein kinase I isoform delta (Homo sapiens) (UniProt P48730); assay: Inhibition of human CK1delta assessed as enzyme activity at 1 uM relative to control; set-up: scale not given: the % may be the effect or the level left
[18] = biological target: cAMP-dependent protein kinase catalytic subunit PRKX (Homo sapiens) (UniProt P51817); assay: Inhibition of human PrKX assessed as enzyme activity at 1 uM relative to control; set-up: scale not given: the % may be the effect or the level left
[19] = biological target: Testis-specific serine/threonine-protein kinase 1 (Homo sapiens) (UniProt Q9BXA7); assay: Inhibition of human TSSK1 assessed as enzyme activity at 1 uM relative to control; set-up: scale not given: the % may be the effect or the level left
[20] = biological target: Cyclin-dependent kinase 1/cyclin B1 (Homo sapiens) (UniProt P06493+P14635); assay: Inhibition of human CDK1/cyclinB assessed as enzyme activity at 1 uM relative to control; assay type: protein-complex assay; set-up: scale not given: the % may be the effect or the level left
[21] = biological target: Protein kinase C alpha type (Homo sapiens) (UniProt P17252); assay: Inhibition of human PKCalpha assessed as enzyme activity at 1 uM relative to control; set-up: scale not given: the % may be the effect or the level left
[22] = biological target: Serine/threonine-protein kinase PAK 6 (Homo sapiens) (UniProt Q9NQU5); assay: Inhibition of human PAK6 assessed as enzyme activity at 1 uM relative to control; set-up: scale not given: the % may be the effect or the level left
[23] = Antitumor activity against human LOX cells expressing B-Raf V600E mutant xenografted in nude mouse assessed as tumor growth inhibition at 30 mg/kg qd for 4 days measured on day 5; assay type: functional; conditions: read-out: TGI
[24] = biological target: Death-associated protein kinase 1 (Homo sapiens) (UniProt P53355); assay: Inhibition of human DAPK1 assessed as enzyme activity at 1 uM relative to control; set-up: scale not given: the % may be the effect or the level left
[25] = biological target: Vascular endothelial growth factor receptor 1 (Homo sapiens) (UniProt P17948); assay: Inhibition of human Flt1 assessed as enzyme activity at 1 uM relative to control; set-up: scale not given: the % may be the effect or the level left
[26] = biological target: Testis-specific serine/threonine-protein kinase 2 (Homo sapiens) (UniProt Q96PF2); assay: Inhibition of human TSSK2 assessed as enzyme activity at 1 uM relative to control; set-up: scale not given: the % may be the effect or the level left
[27] = biological target: Ribosomal protein S6 kinase alpha-4 (Homo sapiens) (UniProt O75676); assay: Inhibition of human MSK2 assessed as enzyme activity at 1 uM relative to control; set-up: scale not given: the % may be the effect or the level left
[28] = biological target: Insulin-like growth factor 1 receptor (Homo sapiens) (UniProt P08069); assay: Inhibition of human activated IGF-1R assessed as enzyme activity at 1 uM relative to control; set-up: scale not given: the % may be the effect or the level left
[29] = biological target: Dual specificity protein kinase CLK2 (Homo sapiens) (UniProt P49760); assay: Inhibition of human CLK2 assessed as enzyme activity at 1 uM relative to control; set-up: scale not given: the % may be the effect or the level left
[30] = biological target: Tyrosine-protein kinase TXK (Homo sapiens) (UniProt P42681); assay: Inhibition of human Txk assessed as enzyme activity at 1 uM relative to control; set-up: scale not given: the % may be the effect or the level left
[31] = biological target: Death-associated protein kinase 2 (Homo sapiens) (UniProt Q9UIK4); assay: Inhibition of human DAPK2 assessed as enzyme activity at 1 uM relative to control; set-up: scale not given: the % may be the effect or the level left
[32] = biological target: Mitogen-activated protein kinase 9 (Homo sapiens) (UniProt P45984); assay: Inhibition of human JNK2alpha2 assessed as enzyme activity at 1 uM relative to control; set-up: scale not given: the % may be the effect or the level left
[33] = biological target: Ephrin type-B receptor 4 (Homo sapiens) (UniProt P54760); assay: Inhibition of human EphB4 assessed as enzyme activity at 1 uM relative to control; set-up: scale not given: the % may be the effect or the level left
[34] = biological target: G protein-coupled receptor kinase 6 (Homo sapiens) (UniProt P43250); assay: Inhibition of human GRK6 assessed as enzyme activity at 1 uM relative to control; set-up: scale not given: the % may be the effect or the level left
[35] = biological target: BDNF/NT-3 growth factors receptor (Homo sapiens) (UniProt Q16620); assay: Inhibition of human TrkB assessed as enzyme activity at 1 uM relative to control; set-up: scale not given: the % may be the effect or the level left
[36] = biological target: Cyclin-dependent kinase 2/cyclin E1 (Homo sapiens) (UniProt P24864+P24941); assay: Inhibition of human CDK2/cyclinE assessed as enzyme activity at 1 uM relative to control; assay type: protein-complex assay; set-up: scale not given: the % may be the effect or the level left
[37] = biological target: Tyrosine-protein kinase Lck (Homo sapiens) (UniProt P06239); assay: Inhibition of human Lck assessed as enzyme activity at 1 uM relative to control; set-up: scale not given: the % may be the effect or the level left
[38] = biological target: Tyrosine-protein kinase SYK (Homo sapiens) (UniProt P43405); assay: Inhibition of human Syk assessed as enzyme activity at 1 uM relative to control; set-up: scale not given: the % may be the effect or the level left

Sequence of Ephrin type-B receptor 2 (Homo sapiens) (P29323 whole entry): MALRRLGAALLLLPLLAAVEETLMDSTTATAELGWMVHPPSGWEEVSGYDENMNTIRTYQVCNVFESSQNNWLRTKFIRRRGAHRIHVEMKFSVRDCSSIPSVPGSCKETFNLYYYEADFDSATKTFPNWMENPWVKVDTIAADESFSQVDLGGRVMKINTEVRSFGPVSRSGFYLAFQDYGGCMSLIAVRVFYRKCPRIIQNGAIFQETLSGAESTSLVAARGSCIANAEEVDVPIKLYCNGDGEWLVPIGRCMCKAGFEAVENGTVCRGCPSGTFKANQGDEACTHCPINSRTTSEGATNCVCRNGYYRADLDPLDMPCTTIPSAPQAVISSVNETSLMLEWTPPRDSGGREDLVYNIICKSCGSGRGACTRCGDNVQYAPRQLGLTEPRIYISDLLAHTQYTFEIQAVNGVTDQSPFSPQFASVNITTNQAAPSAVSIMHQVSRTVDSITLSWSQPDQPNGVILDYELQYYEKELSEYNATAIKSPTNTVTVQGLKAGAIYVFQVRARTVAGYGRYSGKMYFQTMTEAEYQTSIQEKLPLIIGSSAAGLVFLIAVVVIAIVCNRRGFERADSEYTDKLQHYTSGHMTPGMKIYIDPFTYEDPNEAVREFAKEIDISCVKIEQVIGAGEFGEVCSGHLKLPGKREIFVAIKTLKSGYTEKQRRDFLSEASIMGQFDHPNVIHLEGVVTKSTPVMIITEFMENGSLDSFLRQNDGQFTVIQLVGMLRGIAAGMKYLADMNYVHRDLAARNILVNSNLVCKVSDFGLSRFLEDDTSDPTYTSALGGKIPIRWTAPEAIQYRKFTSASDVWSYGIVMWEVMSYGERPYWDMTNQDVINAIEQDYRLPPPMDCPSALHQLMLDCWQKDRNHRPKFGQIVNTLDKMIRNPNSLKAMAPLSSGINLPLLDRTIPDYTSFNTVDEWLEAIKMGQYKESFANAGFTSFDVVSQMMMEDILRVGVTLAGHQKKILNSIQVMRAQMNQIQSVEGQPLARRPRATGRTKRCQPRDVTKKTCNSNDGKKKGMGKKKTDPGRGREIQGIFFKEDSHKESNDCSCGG
Sequence of G protein-coupled receptor kinase 6 (Homo sapiens) (P43250 whole entry, looked up): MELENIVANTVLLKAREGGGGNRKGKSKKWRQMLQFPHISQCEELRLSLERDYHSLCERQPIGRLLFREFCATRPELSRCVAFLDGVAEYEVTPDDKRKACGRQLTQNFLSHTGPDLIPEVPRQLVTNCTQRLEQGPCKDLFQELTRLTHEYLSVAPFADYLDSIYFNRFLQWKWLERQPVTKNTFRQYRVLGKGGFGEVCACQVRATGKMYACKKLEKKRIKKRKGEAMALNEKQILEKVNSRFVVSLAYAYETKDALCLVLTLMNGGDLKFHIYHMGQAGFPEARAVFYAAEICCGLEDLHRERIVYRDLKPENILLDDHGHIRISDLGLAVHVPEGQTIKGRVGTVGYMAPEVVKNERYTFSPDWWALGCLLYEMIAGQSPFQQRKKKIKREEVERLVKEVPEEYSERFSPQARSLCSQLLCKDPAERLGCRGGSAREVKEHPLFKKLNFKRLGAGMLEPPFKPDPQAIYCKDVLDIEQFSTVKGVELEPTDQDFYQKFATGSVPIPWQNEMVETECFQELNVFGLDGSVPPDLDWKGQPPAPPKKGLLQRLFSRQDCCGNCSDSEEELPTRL
Sequence of G protein-coupled receptor kinase 5 (Homo sapiens) (P34947 whole entry, looked up): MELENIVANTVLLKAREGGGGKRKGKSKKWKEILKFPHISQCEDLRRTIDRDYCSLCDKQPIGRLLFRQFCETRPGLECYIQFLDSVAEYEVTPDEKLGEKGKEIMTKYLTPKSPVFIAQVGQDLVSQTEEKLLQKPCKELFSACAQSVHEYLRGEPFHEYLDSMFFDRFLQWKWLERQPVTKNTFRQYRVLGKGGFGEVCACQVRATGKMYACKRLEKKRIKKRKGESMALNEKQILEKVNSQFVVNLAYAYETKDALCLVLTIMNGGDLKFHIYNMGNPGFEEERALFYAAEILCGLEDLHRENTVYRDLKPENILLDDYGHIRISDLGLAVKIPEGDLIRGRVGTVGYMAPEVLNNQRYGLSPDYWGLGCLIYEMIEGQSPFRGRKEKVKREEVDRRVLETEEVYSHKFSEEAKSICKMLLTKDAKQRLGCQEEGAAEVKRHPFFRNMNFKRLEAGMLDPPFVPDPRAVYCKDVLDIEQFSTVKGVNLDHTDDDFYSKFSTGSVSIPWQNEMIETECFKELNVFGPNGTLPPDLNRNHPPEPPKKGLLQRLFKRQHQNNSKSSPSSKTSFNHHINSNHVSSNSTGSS
Sequence of Casein kinase I isoform delta (Homo sapiens) (P48730 whole entry, looked up, canonical isoform): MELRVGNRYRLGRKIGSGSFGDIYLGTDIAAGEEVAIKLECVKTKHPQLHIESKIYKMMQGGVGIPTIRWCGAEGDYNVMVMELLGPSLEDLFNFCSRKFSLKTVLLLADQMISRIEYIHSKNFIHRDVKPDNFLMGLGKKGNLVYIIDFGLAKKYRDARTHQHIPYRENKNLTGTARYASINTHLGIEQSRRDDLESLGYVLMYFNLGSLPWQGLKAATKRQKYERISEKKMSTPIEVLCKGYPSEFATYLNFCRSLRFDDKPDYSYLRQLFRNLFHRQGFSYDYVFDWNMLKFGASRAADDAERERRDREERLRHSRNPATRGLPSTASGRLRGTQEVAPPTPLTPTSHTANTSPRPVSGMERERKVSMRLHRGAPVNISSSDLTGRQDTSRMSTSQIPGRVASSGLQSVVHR
Sequence of Tyrosine-protein kinase ZAP-70 (Homo sapiens) (P43403 whole entry): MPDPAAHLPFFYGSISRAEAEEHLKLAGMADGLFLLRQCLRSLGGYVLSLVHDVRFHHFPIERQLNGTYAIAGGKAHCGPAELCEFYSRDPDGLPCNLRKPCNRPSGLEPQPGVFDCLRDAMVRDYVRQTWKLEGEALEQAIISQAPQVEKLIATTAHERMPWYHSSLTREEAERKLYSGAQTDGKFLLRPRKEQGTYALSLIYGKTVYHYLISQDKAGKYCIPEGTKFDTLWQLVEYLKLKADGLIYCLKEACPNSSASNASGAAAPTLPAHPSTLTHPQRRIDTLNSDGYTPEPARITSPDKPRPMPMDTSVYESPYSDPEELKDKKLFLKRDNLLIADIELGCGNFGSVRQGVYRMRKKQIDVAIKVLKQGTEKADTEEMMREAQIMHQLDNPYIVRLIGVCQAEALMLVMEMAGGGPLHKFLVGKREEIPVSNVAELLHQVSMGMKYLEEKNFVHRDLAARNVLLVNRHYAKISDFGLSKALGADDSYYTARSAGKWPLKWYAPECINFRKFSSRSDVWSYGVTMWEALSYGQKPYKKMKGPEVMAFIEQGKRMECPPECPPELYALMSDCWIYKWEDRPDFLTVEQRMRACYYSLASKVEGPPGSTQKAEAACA
Sequence of Ribosomal protein S6 kinase beta-1 (Homo sapiens) (P23443 whole entry, looked up, canonical isoform): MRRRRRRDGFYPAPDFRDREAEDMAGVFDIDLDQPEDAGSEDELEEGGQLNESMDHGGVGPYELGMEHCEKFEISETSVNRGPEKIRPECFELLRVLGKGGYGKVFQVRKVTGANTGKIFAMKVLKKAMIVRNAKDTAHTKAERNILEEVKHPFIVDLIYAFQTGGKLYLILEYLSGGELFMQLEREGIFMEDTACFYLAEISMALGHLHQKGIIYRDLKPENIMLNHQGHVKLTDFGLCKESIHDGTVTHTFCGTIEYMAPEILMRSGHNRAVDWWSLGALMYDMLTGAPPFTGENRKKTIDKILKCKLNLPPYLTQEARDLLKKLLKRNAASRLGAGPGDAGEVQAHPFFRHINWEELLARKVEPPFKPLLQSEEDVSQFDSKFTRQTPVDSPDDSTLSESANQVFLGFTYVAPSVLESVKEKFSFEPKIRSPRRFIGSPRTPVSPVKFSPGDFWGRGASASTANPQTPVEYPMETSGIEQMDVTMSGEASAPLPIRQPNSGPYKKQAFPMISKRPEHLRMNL
Sequence of Serine/threonine-protein kinase Nek2 (Homo sapiens) (P51955 whole entry): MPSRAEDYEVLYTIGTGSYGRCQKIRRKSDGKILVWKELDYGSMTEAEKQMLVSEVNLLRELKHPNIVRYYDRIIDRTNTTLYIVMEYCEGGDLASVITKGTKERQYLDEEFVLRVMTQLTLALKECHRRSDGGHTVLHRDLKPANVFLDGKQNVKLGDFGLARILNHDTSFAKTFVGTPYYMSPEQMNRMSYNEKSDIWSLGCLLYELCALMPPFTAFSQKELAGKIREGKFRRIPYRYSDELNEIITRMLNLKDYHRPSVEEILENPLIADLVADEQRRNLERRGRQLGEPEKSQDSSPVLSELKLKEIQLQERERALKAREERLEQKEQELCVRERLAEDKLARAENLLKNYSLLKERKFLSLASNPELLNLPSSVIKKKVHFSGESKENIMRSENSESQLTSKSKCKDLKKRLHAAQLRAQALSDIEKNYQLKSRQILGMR

With CCCS(=O)(=O)Nc1cccc(Nc2ccc3ncn(C)c(=O)c3c2)c1C#N the Activity [1] was 99.5%, the Activity [2] was 116% and the Activity [3] was 100%. It also gave an Activity [4] of 95.5%, an Activity [5] of 102% and an Activity [6] of 112%. For the same molecule, the Activity [7] was 104%, the Activity [8] was 102% and the Activity [9] was 99.5%. It also gave an Activity [10] of 97%, an Activity [11] of 102% and an Activity [12] of 104%. The Activity [13] was 94.5%, the Activity [14] was 99.5% and the Activity [15] was 112%. It also gave an Activity [16] of 103%, an Activity [17] of 95.5% and an Activity [18] of 109%. It also gave an Activity [19] of 98%, an Activity [20] of 103% and an Activity [21] of 97%. For the same molecule, the Activity [22] was 110%, the inhibition in vivo at 30 mg/kg [23] was 95% and the Activity [24] was 102%. It also gave an Activity [25] of 93.5%, an Activity [26] of 118% and an Activity [27] of 111%. For the same molecule, the Activity [28] was 84%, the Activity [29] was 110% and the Activity [30] was 104%. For the same molecule, the Activity [31] was 108%, the Activity [32] was 106% and the Activity [33] was 104%. It also gave an Activity [34] of 103%, an Activity [35] of 86% and an Activity [36] of 106%. The Activity [37] was 87% and the Activity [38] was 117%.
